In ChEMBL document CHEMBL5346899, “PKM2/PDK1 dual-targeted shikonin derivatives restore the sensitivity of EGFR-mutated NSCLC cells to gefitinib by remodeling glucose metabolism” (Eur J Med Chem, 2023) one finds IC50, Activity and inhibition data, which are given here for 1 compound.

Calls of active or inactive are those of the source. No cut-off for these calls is given here.

Assay [1] has as its system NCI-H1299. Description: cells. The format is functional, cell-based. The following applies: Homo sapiens, NCI-H1299, 24 h.
Description: Antiproliferative activity against human NCI-H1299 cells assessed as inhibition of cell growth incubated for 24 hrs by CCK-8 assay
For assay [2], the system named is HCC827. Description: Antiproliferative activity against human HCC827 cells assessed as reduction in clone size. The assay is classed as functional, cell-based.
Assay [3] concerns NCI-H1299. Description: Induction of apoptosis in human NCI-H1299 cells assessed as late apoptotic cells at 1 micromol/L incubated for 24 hrs by Annexin V-FITC/PI staining based analysis (reference value: 14.9%). Particulars: dose 1 µmol/L, at 1 µM. The format is functional.
The next assay has as its system A549. Description: Induction of apoptosis in human A549 cells assessed as late apoptotic cells at 1 micromol/L incubated for 24 hrs by Annexin V-FITC/PI staining based analysis (reference value: 3.18%). The format is functional. Particulars: dose 1 µmol/L, at 1 µM.
For assay [4], the system named is NCI-H1975. In words: Induction of apoptosis in human NCI-H1975 cells assessed as late apoptotic cells at 2 micromol/L incubated for 24 hrs by Annexin V-FITC/PI staining based analysis (reference value: 2.66%). The format is functional. The following applies: dose 2 µmol/L, at 2 µM.
Assay [5] deals with HCC827. In words: Induction of apoptosis in human HCC827 cells assessed as early apoptotic cells at 2 micromol/L incubated for 24 hrs by Annexin V-FITC/PI staining based analysis (reference value: 9.14%). The format is functional. The following applies: dose 2 µmol/L, at 2 µM.
In assay [6] the test system is NCI-H1975. In words: Induction of apoptosis in human NCI-H1975 cells assessed as regulation of PARP expression by Western blot analysis. The assay is classed as functional, cell-based.
The test system of assay [7] is NCI-H1975. Description: Induction of apoptosis in human NCI-H1975 cells assessed as regulation of cleaved PARP expression by Western blot analysis. The assay is classed as functional, cell-based. (In general: Immunoblotting shows a protein as a band on a membrane.)
The test system of assay [8] is NCI-H1975. Description: Induction of apoptosis in human NCI-H1975 cells assessed as regulation of cleaved Caspase-3 expression by Western blot analysis. The assay is classed as functional, cell-based.
Assay [9] concerns NCI-H1975. Description: Induction of apoptosis in human NCI-H1975 cells assessed as regulation of cleaved caspase-8 expression by Western blot analysis. The format is functional, cell-based.
Assay [10] deals with NCI-H1975. Description: Induction of mitochondrial transmembrane potential dissipation in human NCI-H1975 cells assessed as cells with high mitochondrial transmembrane potential at 1 micromol/L by FL-1/FL-2 channel based fluorescence analysis (reference value: 97.4%). The assay is classed as functional. Particulars: dose 1 µmol/L; at 1 µM.
For assay [11], the system named is HCC827. Description: Induction of intracellular ROS accumulation in human HCC827 cells. The format is functional, cell-based.
For assay [12], the system named is HCC827. In words: Antiproliferative activity against siRNA mediated PKM2 knockdown human HCC827 cells assessed as inhibition of cell growth incubated for 24 hrs by CCK-8 assay. The assay is classed as functional, cell-based. Particulars: HCC827, 24 h. On the technique in general: Formazan colour is commonly taken as a measure of viable cells.
The subject of assay [13] is NCI-H1975. Description: Downregulation of PDK1 protein expression in human NCI-H1975 cells at 1 to 2 micromol/L by Western blot analysis. The following applies: dose 1-2 µmol/L. The assay is classed as functional, cell-based.
For assay [14], the system named is NCI-H1975. Description: Induction of apoptosis in human NCI-H1975 cells transfected with siRNA assessed as late apoptotic cells at 2 micromol/L incubated for 24 hrs by Annexin V-FITC/PI staining based analysis (reference value: 4.03%). The assay is classed as functional. The following applies: dose 2 µmol/L, at 2 µM.
Assay [15] concerns NCI-H1975. Description: Antiproliferative activity against siRNA mediated […] knockdown human NCI-H1975 cells assessed as inhibition of cell growth incubated for 24 hrs by CCK-8 assay. The assay is classed as functional, cell-based. Particulars: NCI-H1975, 24 h.
The subject of assay [16] is NCI-H1975. Description: Induction of apoptosis in human NCI-H1975 cells transfected with siRNA assessed as early apoptotic cells at 2 micromol/L incubated for 24 hrs by Annexin V-FITC/PI staining based analysis (reference value: 1.16%). The assay is classed as functional. Particulars: dose 2 µmol/L, at 2 µM.
In assay [17] the test system is NCI-H1975. Description: Induction of apoptosis in human NCI-H1975 cells transfected with siRNA assessed as late apoptotic cells at 1 micromol/L incubated for 24 hrs by Annexin V-FITC/PI staining based analysis (reference value: 4.03%). The assay is classed as functional. Particulars: dose 1 µmol/L, at 1 µM.
The test system of assay [18] is NCI-H1975. Description: Induction of apoptosis in human NCI-H1975 cells with siRNA mediated […] knockdown assessed as late apoptotic cells at 1 micromol/L incubated for 24 hrs by Annexin V-FITC/PI staining based analysis (reference value: 6.25%). The format is functional. The following applies: dose 1 µmol/L, at 1 µM.
Assay [19] has as its system NCI-H1975. Description: Inhibition of glycolysis in human NCI-H1975 cells assessed as reduction in glucose consumption incubated for 24 hrs by colorimetric assay. The assay is classed as functional, cell-based.
Assay [20] deals with NCI-H1975. Description: Antitumor activity against human NCI-H1975 cells xenografted in athymic nu/nu mouse assessed as damage in tumor tissue at 2.4 to 4.8 mg/kg, ip administered every 2 days for 11 days by H and E staining based analysis. The following applies: dose 2.4-4.8 mg/kg, time 11.0 day. The assay is classed as functional, organism-based. (In general: Xenograft models place foreign cells or tissue in a host animal.)

In assay [21] the test system is NCI-H1975. In words: Induction of apoptosis in human NCI-H1975 cells assessed as late apoptotic cells at 0.5 micromol/L incubated for 24 hrs by Annexin V-FITC/PI staining based analysis (reference value: 8.61%). The format is functional. Particulars: dose 0.5 µmol/L, at 0.5 µM.
Assay [22] deals with NCI-H1975. In words: Induction of apoptosis in human NCI-H1975 cells assessed as live cells at 0.5 micromol/L incubated for 24 hrs in presence of gefitinib by Annexin V-FITC/PI staining based analysis (reference value: 88.7%). Particulars: dose 0.5 µmol/L, at 0.5 µM. The format is functional.

The IC50 is the point on the concentration scale where inhibition reaches its midpoint. As to `COC(=O)[C@H](CS[C@H](CC=C(C)C)C1=CC(=O)c2c(O)ccc(O)c2C1=O)NC(=O)CCCC[C@@H]1CCSC(c2ccccc2C)S1` (stereo partly drawn), the IC50 with NCI-H1299 [1] worked out at 5.48 µM; with HCC827 [12], 13 µM; in the assay on NCI-H1975 [15], 9 µM. Also, the Activity result in the assay on HCC827 [2] was “Dose-Dependent Effect”; in the assay on NCI-H1299 [3] it was 16.7%; in the assay with A549, 5.33%; with NCI-H1975 [4], 37.3%; in the assay on HCC827 [5] it was 29.4%; in the assay with NCI-H1975 [10], 62.2%. Moreover, the Activity was 9.4% in the assay with NCI-H1975 [14]; 8.24% in the assay with NCI-H1975 [16]; 7.86% in the assay with NCI-H1975 [17]; 4.95% in the assay on NCI-H1975 [18]; 11.2% in the assay with NCI-H1975 [21]; 57.5% in the assay with NCI-H1975 [22]. Moreover, the result with NCI-H1975 [6], in the assay with NCI-H1975 [7], with NCI-H1975 [8], with NCI-H1975 [9], in the assay on HCC827 [11] and in the assay with NCI-H1975 [20] was Active. In the assay with NCI-H1975 [13], the result was inactive. In addition, the inhibition result in the assay on NCI-H1975 [19] was “Active”.
